Paper PMC8629924 (Nature chemistry, 2021)

Molecular target: T1, MaNifB (Methanosarcina acetivorans, UniProt Q8TIF7)
T1 sequence (Q8TIF7 1-323): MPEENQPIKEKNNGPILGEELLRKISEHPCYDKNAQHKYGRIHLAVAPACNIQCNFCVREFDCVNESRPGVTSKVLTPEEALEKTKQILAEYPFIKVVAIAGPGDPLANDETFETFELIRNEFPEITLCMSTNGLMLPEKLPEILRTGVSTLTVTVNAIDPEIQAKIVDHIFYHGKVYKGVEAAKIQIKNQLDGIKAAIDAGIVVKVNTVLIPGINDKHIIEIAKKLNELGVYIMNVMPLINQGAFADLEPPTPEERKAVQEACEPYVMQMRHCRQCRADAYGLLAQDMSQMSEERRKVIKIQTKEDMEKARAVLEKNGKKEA
Details: K-cluster-loaded MaNifB; dithionite-reduced or IDS-oxidized

With C[S+](CC[C@H](N)C(=O)O)C[C@H]1O[C@@H](n2cnc3c(N)ncnc32)[C@H](O)[C@@H]1O (stereo partly shown) [SAM] the “CW EPR and 3-pulse ESEEM of K- to L*-cluster conversion” value was “SAM-treated MaNifB (designated MaNifB-L*) displayed a distinct change in the line-shape”.
